Results: patent publication US9758485B2, “Compounds for controlling arthropods” (priority 2013, dated 2017)

Legend:
Amblyomma hebraeum = Amblyomma hebraeum test (tick nymphs, immersion); type: in vivo; conditions: application rate 100 ppm; tick nymphs immersed for one minute; kill after 42 days
Method: (§1) Solvent: dimethyl sulphoxide
To produce an appropriate active ingredient formulation, 10 mg of active ingredient are mixed with 0.5 ml of dimethyl sulphoxide, and the concentrate is diluted with water to the desired concentration.
Tick nymphs (Amblyomma hebraeum) are placed into perforated plastic beakers and immersed in the desired concentration for one minute. The ticks are transferred on filter paper into a Petri dish and stored in a climate-controlled cabinet.
After 42 days, the kill in % is determined. 100% means that all of the ticks have been killed; 0% means that none of the ticks have been killed.

Boophilus microplus = Boophilus microplus - injection test; type: in vivo; conditions: application rate 20 μg/animal; injected into engorged adult female ticks; laying of fertile eggs, after 7 days
Summary of the method: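 Engorged adult female Boophilus microplus ticks (5 per dose) each received a 1 μl abdominal injection of compound in DMSO and were held in a climate-controlled room. Efficacy was scored after 7 days from fertile egg laying, with unclear eggs kept until hatching (~42 days); 100% means no fertile eggs.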

Rhipicephalus sanguineus = Rhipicephalus sanguineus - in vitro contact tests with adult brown dog ticks; type: in vivo
Method: Rhipicephalus sanguineus—In Vitro Contact Tests with Adult Brown Dog Ticks
For the coating of the test tubes, 9 mg of active ingredient are first dissolved in 1 ml of acetone p.a. and then diluted to the desired concentration with acetone p.a. 250 μl of the solution are distributed homogeneously on the inner walls and base of a 25 ml test tube by turning and rocking on an orbital shaker (rocking rotation at 30 rpm for 2 h). With 900 ppm active ingredient solution and internal surface 44.7 cm^2, given homogeneous distribution, an area-based dose of 5 μg/cm^2 is achieved.
After the solvent has evaporated off, the tubes are populated with 5-10 adult dog ticks (Rhipicephalus sanguineus), sealed with a perforated plastic lid and incubated in a horizontal position in the dark at room temperature and ambient humidity. After 48 h, efficacy is determined. To this end, the ticks are knocked to the floor of the tube and incubated on a hotplate at 45-50° C. for not more than 5 min. Ticks which remain motionless on the floor or move in such an uncoordinated manner that they are unable to deliberately avoid the heat by climbing upwards are considered to be dead or moribund.
An efficacy of 100% means that all the ticks were dead or moribund. 0% efficacy means that none of the ticks had been harmed.

[1] = logP determination by HPLC on a reversed-phase column (C18), EEC Directive 79/831 Annex V.A8; type: physicochemical; conditions: for logP^a): HPLC-MS method a), Table I-T3; for log P: HPLC-MS, reversed-phase column (C18)
[2] = test system: Boophilus microplus Parkhurst strain, SP-resistant; test: Boophilus microplus - dip test; type: in vivo; conditions: application rate 100 ppm; dip of engorged adult female ticks; laying of fertile eggs, after 7 days
Method: Boophilus microplus—Dip Test
Test animals: cattle ticks (Boophilus microplus) Parkhurst strain, SP-resistant
as §1
10 mg of active ingredient are dissolved in 0.5 ml of dimethyl sulphoxide. For the purpose of producing a suitable formulation, the active ingredient solution is diluted with water to the concentration desired in each case.
This active ingredient formulation is pipetted into tubes. 8-10 adult engorged female cattle ticks (Boophilus microplus) are transferred into a further tube with holes. The tube is immersed into the active ingredient formulation, and all the ticks are completely wetted. After the liquid has run out, the ticks are transferred on filter discs into plastic dishes and stored in a climate-controlled room.
Efficacy is assessed after 7 days by laying of fertile eggs. Eggs which are not visibly fertile are stored in a climate-controlled cabinet until the larvae hatch after about 42 days. An efficacy of 100% means that none of the ticks has laid any fertile eggs; 0% means that all the eggs are fertile.

Ctenocephalides felis [3] = test: Ctenocephalides felis - oral test; type: in vivo; conditions: application rate 100 ppm in citrated cattle blood; adult fleas; kill after 2 days
Summary of the method: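 Steps: active ingredient dissolved in dimethyl sulphoxide; blood dilution prepared; fleas (about 20, unfed adults) held in gauze-closed chamber beneath a cylinder of treated blood; feeding via parafilm; kill percentage determined after 2 days.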

Ctenocephalides felis [4] = test: Ctenocephalides felis - in vitro contact tests with adult cat fleas; type: in vivo; conditions: application rate 5 μg/cm^2 (=500 g/ha), after 48 h (dead or moribund)
Summary of the method: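 Efficacy, as share of dead or moribund adult Ctenocephalides felis, read 48 h after placing 5-10 fleas in tubes coated by acetone solution (5 μg/cm^2 at 900 ppm). Incubation horizontal at room temperature, ambient humidity; immobile or uncoordinated fleas scored.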

Lucilia cuprina = Lucilia cuprina test; type: in vivo; conditions: application rate 100 ppm; L1 larvae in minced horsemeat; kill after 2 days
Summary of the method: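 Mortality (%) of first-instar blowfly larvae, about 20 per vessel, recorded 2 days after exposure to compound-treated minced horsemeat. Compound dissolved in dimethyl sulphoxide, then water-diluted to the desired concentration.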

Musca domestica = Musca domestica test; type: in vivo; conditions: application rate 100 ppm; adult houseflies; kill after 2 days
Summary of the method: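 First, 10 mg compound was taken up in 0.5 ml DMSO and then brought with water to the required concentration. This was applied with sugar solution to a sponge in vessels holding 10 adult flies; kill was assessed after 2 days.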

[5] = application rate 5 μg/cm^2, after 48 h (dead or moribund)
[6] = application rate 0.2 μg/cm^2, after 48 h (dead or moribund)

| SMILES | efficacy (Amblyomma hebraeum) | efficacy (Boophilus microplus) | efficacy (Rhipicephalus sanguineus; [5]) | logP^a) [1] | efficacy [2] | efficacy (Ctenocephalides felis [3]) | efficacy (Ctenocephalides felis [4]) | efficacy (Lucilia cuprina) | efficacy (Musca domestica) | efficacy (Rhipicephalus sanguineus; [6]) | log P [1] | logP ([1]; HPLC, reversed-phase C18, acetonitrile/water with formic acid, 55° C.) |
| --- | --- | --- | --- | --- | --- | --- | --- | --- | --- | --- | --- | --- |
| Cc1cc(C(F)(C(F)(F)F)C(F)(F)F)cc(C)c1-n1cc(-c2ccc(Cl)c(C(=O)NC3(C#N)CC3)c2)cn1 [I-T3-3] | 100% | 100% | 100% | 4.2 | 100% | 100% | 100% | 100% | 100% |  |  |  |
| Cc1cc(C(F)(C(F)(F)F)C(F)(F)F)cc(C)c1-n1cc(-c2cnc(Cl)c(C(=O)NC3CC3)c2)cn1 [I-T3-20] | 100% | 100% | 100% | 3.8 | 100% | 100% | 100% | 100% | 100% |  |  |  |
| Cc1cc(C(F)(C(F)(F)F)C(F)(F)F)cc(C)c1-n1cc(-c2cnc(Cl)c(C(=O)NC3(C#N)CC3)c2)cn1 [I-T3-21] | 100% | 100% | 100% | 3.7 | 100% | 100% | 100% | 100% | 100% |  |  |  |
| O=C(NC1CC1)c1cc(-c2cnn(-c3c(Cl)cc(C(F)(C(F)(F)F)C(F)(F)F)cc3Cl)c2)cnc1Cl [I-T3-42] | 100% | 100% | 100% | 3.8 | 100% | 100% | 100% | 100% | 100% |  |  |  |
| N#CC1(NC(=O)c2cc(-c3cnn(-c4c(Cl)cc(C(F)(C(F)(F)F)C(F)(F)F)cc4Cl)c3)cnc2Cl)CC1 [I-T3-43] | 100% | 100% | 80% | 3.8 | 100% | 100% | 100% | 100% | 100% |  |  |  |
| CCc1cc(C(F)(C(F)(F)F)C(F)(F)F)cc(C)c1-n1cc(-c2ccc(Cl)c(C(=O)NC3CC3)c2)cn1 [I-T3-44] | 100% | 100% | 100% | 4.7 | 100% | 100% | 100% | 100% |  |  |  |  |
| N#CC1(NC(=O)c2cc(-c3cnn(-c4ccc(C(F)(C(F)(F)F)C(F)(F)F)cc4C(F)(F)F)c3)ccc2Cl)CC1 [I-T3-53] | 80% | 100% | 100% | 4.3 | 100% | 100% |  | 100% | 100% |  |  |  |
| Cc1cc(C(F)(C(F)(F)F)C(F)(F)F)cc(C(F)(F)F)c1-n1cc(-c2ccc(Cl)c(C(=O)NC3CC3)c2)cn1 [I-T3-54] | 100% | 100% | 100% | 4.4 | 100% | 100% | 100% | 100% | 100% |  |  |  |
| Cc1cc(C(F)(C(F)(F)F)C(F)(F)F)cc(C(F)(F)F)c1-n1cc(-c2ccc(Cl)c(C(=O)NC3(C#N)CC3)c2)cn1 [I-T3-55] | 100% | 100% | 100% | 4.3 | 100% | 100% | 100% | 100% | 100% |  |  |  |
| O=C(NC1CC1)c1cc(-c2cnn(-c3c(Cl)cc(C(F)(C(F)(F)F)C(F)(F)F)cc3C(F)(F)F)c2)ccc1Cl [I-T3-56] | 100% | 100% | 100% | 4.4 | 100% | 100% | 100% | 100% | 100% |  |  |  |
| O=C(NC1CC1)c1cc(-c2cnn(-c3c(F)cc(C(F)(C(F)(F)F)C(F)(F)F)cc3F)c2)ccc1Cl [I-T3-61] | 80% | 100% | 100% | 4.0 | 100% | 100% | 100% | 100% | 100% |  |  |  |
| Cc1cc(C(F)(C(F)(F)F)C(F)(F)F)cc(Cl)c1-n1cc(-c2ccc(Cl)c(C(=O)NC3CC3)c2)cn1 [I-T3-63] | 100% | 100% | 100% | 4.4 | 100% | 100% | 100% | 100% | 100% |  |  |  |
| Cc1cc(C(F)(C(F)(F)F)C(F)(F)F)cc(Cl)c1-n1cc(-c2ccc(Cl)c(C(=O)NC3(C#N)CC3)c2)cn1 [I-T3-64] | 100% | 100% |  | 4.2 | 100% | 100% | 100% | 100% | 100% | 80% |  |  |
| CCc1cc(C(F)(C(F)(F)F)C(F)(F)F)cc(Cl)c1-n1cc(-c2ccc(Cl)c(C(=O)NC3(C#N)CC3)c2)cn1 [I-T3-71] | 100% | 100% | 100% | 4.5 | 100% | 100% | 100% | 100% | 100% |  |  |  |
| CCc1cc(C(F)(C(F)(F)F)C(F)(F)F)ccc1-n1cc(-c2cnc(Cl)c(C(=O)NC3CC3)c2)cn1 [I-T3-104] | 100% | 100% | 100% |  | 100% | 100% |  | 100% | 100% |  | 4.2 |  |
| CCc1cc(C(F)(C(F)(F)F)C(F)(F)F)ccc1-n1cc(-c2cnc(Cl)c(C(=O)NC3(C#N)CC3)c2)cn1 [I-T3-105] | 85% | 100% |  |  |  | 100% |  | 100% | 80% | 100% | 4.1 |  |
| Cc1ncc(-c2cnn(-c3c(Cl)cc(C(F)(C(F)(F)F)C(F)(F)F)cc3C(F)(F)F)c2)cc1C(=O)N(C)C1(C#N)CC1 [I-T3-131] | 100% | 100% |  |  | 100% | 100% | 100% | 100% | 100% |  | 3.9 |  |
| Cc1cc(C(F)(C(F)(F)F)C(F)(F)F)cc(C)c1-c1cnn(-c2cnc(Cl)c(C(=O)NC3(C#N)CC3)c2)c1 [I-T4-4] | 100% | 100% | 100% |  | 100% | 100% | 100% | 100% |  |  |  | 4.3 |
